Assay results taken from patent publication US9809623B2, “α4β7 peptide monomer and dimer antagonists” (Protagonist Therapeutics, Inc., priority 2014, dated 2017).
Numbered stars: 1 amine (or outer) side, 2 acyl side, 3 side chain; on linkers, the order of the positions; unused ones are H or OH. Bridge positions count the residues as written; N and C are the ends. Square brackets hold non-standard residues; d marks the D form. Peptide text beside a SMILES is read from it. I, II: the chains in the order shown. Diglycolyl = O=C(COCC(=O)[*:2])[*:1]; NMeR = CN[C@@H](CCCNC(=N)N)C(=O)O; Pen = CC(C)(S)[C@H](N)C(=O)O; dNMeK = CN[C@H](CCCCN)C(=O)O

How the values were obtained:
rh integrin α4β7 = biological target: T1, rh integrin α4β7 (Homo sapiens, UniProt P13612+P26010); test: α4β7-MAdCAM Competition ELISA; format: binding; settings: Table 4-B; read-out: ELISA α4β7 IC50
T1 construct: purchased R&D Systems 5397-A30
T1 sequence (P13612 34-977 limits assumed): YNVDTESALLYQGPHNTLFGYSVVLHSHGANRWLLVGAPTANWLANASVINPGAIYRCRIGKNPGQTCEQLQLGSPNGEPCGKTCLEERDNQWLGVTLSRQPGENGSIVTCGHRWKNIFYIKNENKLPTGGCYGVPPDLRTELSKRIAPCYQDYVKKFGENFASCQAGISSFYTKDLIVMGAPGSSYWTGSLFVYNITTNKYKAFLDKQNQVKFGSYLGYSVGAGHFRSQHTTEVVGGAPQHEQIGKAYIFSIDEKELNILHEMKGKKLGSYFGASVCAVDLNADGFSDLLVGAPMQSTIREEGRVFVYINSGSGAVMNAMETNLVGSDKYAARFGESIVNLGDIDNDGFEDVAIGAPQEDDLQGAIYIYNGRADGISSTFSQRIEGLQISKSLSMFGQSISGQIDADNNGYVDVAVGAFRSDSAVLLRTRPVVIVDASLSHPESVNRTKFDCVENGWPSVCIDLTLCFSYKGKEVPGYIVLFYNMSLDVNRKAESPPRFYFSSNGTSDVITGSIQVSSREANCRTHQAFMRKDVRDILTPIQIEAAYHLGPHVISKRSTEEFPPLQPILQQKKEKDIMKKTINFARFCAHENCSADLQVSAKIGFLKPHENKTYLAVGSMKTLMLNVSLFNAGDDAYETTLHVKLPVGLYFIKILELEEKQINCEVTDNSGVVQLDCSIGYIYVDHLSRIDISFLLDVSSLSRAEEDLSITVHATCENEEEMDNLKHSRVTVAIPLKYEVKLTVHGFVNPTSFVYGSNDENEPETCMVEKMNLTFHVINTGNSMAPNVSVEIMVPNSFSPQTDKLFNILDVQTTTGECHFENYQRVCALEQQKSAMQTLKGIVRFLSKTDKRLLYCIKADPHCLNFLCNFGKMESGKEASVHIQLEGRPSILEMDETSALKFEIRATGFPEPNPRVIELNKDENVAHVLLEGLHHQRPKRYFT
T1 sequence (P26010 20-723 limits assumed): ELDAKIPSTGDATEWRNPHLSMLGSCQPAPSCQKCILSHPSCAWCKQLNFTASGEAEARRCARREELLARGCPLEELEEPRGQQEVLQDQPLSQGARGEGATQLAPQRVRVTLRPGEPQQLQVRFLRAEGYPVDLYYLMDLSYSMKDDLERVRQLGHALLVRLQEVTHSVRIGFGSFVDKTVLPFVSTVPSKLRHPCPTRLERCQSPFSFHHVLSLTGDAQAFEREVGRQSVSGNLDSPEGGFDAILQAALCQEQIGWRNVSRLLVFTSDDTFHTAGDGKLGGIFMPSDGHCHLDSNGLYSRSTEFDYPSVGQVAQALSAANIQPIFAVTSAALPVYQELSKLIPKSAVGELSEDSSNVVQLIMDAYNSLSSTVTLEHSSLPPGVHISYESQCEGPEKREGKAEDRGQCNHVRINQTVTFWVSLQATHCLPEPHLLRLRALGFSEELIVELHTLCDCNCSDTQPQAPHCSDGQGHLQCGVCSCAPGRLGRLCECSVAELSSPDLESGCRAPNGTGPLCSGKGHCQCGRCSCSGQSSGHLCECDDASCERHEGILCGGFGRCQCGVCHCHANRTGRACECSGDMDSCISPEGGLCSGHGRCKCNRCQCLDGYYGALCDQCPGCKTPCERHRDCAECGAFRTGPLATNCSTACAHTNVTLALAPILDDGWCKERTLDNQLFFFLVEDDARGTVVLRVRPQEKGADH
In short: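 Competition read-out was A450 after anti-human IgG1-HRP and TMB detection of bound recombinant human MAdCAM-1 (10 nM final). Peptides were serially diluted 3-fold from a final 10 μM and equilibrated 1 h at room temperature on nickel-captured α4β7 (800 ng/well). The buffer was Tris pH 7.6 with 1 mM Mn2+ or Mg2+.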

α4β1 = biological target: T2, α4β1 (Homo sapiens, UniProt P05556+P13612, DEL729-798); test: α4β1-VCAM Competition ELISA; format: binding; settings: Table 4-B; read-out: ELISA_α4β1 IC50
T2 construct: purchased R&D Systems 5668-A4
T2 sequence (P13612 34-977 limits assumed, stated change not applied): as the sequence (P13612 34-977 limits assumed) above
T2 sequence (P05556 21-728 limits assumed, stated change not applied): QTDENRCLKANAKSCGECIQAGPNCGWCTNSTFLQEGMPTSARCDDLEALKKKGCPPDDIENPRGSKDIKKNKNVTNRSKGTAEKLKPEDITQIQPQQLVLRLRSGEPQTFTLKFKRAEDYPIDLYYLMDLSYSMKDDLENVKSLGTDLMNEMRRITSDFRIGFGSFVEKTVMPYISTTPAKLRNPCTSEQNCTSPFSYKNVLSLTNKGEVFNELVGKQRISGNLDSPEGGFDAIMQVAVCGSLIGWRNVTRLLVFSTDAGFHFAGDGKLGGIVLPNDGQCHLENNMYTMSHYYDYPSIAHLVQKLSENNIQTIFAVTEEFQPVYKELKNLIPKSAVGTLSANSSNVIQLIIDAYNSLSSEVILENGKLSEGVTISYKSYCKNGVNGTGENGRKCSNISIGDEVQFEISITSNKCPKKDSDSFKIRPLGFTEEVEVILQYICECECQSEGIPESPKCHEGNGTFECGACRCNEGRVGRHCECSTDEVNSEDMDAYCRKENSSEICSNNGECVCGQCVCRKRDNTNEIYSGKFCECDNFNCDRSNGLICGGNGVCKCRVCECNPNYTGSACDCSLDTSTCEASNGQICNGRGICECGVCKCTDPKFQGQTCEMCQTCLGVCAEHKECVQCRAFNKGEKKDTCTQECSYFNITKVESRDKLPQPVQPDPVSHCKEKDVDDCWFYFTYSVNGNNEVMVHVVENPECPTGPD
In short: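 ELISA plates were coated with VCAM-1 Fc at 400 ng/well. Peptide dilutions (highest final 100 μM) and 60 nM α4β1 were incubated 2 h at 37 °C in pH 7.6 Tris buffer containing 1 mM Mn2+ or Mg2+. Integrin retained on the plate was detected by 9F10 antibody, then HRP secondary, with TMB absorbance at 450 nm.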

α4β7 = α4β7 (Homo sapiens, UniProt P13612+P26010); test: α4β7-MAdCAM Cell Adhesion Assay (RPMI 8866 human cells); format: cell-based; set-up: host or cells: RPMI 8866 human B lymphoblastoid cells; settings: Table 4-B; read-out: Cell Adhesion α4β7 IC50
α4β7, sequence (P13612 34-1032): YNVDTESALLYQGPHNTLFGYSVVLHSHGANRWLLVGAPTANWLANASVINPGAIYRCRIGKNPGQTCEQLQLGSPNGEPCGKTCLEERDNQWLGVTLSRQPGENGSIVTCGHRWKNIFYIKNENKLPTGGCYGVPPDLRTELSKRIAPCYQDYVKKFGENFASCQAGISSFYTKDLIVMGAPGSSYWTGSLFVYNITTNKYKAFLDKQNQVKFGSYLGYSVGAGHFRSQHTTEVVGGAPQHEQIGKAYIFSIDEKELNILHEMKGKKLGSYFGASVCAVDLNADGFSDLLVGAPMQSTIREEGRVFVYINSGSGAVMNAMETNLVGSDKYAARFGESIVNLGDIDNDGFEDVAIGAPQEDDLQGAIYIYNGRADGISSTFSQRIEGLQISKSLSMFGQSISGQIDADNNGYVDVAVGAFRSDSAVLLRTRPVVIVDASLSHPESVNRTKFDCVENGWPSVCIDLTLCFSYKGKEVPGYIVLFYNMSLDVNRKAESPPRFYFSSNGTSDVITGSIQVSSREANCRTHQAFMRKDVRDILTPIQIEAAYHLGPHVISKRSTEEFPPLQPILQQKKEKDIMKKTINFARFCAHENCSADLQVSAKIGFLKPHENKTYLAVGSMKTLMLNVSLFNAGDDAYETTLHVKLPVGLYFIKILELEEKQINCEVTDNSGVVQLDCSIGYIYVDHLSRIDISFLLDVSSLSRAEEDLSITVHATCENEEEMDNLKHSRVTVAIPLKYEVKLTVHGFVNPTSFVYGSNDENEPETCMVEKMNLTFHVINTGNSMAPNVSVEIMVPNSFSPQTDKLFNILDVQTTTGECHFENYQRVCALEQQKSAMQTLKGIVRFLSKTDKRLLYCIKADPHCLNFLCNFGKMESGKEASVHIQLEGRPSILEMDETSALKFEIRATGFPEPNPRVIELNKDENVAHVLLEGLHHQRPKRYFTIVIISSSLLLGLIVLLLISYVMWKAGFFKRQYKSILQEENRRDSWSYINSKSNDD
α4β7, sequence (P26010 20-798): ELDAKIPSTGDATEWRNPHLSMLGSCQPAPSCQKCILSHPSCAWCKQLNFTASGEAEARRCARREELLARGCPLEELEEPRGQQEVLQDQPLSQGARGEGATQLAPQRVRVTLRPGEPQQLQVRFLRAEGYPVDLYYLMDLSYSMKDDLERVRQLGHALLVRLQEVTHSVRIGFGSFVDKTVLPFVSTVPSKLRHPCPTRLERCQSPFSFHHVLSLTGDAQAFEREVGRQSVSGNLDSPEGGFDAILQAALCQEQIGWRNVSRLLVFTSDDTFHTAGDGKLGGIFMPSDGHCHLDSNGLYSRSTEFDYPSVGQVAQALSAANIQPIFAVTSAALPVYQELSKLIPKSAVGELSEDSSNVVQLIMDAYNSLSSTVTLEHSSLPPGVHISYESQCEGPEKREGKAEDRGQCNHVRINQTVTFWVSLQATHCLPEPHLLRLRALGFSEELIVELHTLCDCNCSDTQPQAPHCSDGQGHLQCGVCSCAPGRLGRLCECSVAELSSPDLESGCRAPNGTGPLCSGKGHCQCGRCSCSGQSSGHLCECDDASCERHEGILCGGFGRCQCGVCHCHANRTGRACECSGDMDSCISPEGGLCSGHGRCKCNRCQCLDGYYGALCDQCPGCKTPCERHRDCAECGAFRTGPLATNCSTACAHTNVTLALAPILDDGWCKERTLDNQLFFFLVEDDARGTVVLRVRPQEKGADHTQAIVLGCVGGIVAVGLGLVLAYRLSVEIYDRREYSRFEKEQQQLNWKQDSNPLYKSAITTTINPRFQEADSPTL
In short: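 Adhesion read-out: MTT absorbance at 570 nm minus no-cell wells, after three washes. Plates coated with rh MAdCAM-1/Fc received peptide dilutions plus 200,000 RPMI 8866 cells in Mn2+ (1 mM)-supplemented DMEM, 0.1% BSA, HEPES pH 7, incubated 30-45 min, 37 °C.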

Molecule `CC(=O)N[C@@H]1C(=O)N(C)[C@@H](CCCNC(=N)N)C(=O)N[C@@H](CO)C(=O)N[C@@H](CC(=O)O)C(=O)N[C@@H]([C@@H](C)O)C(=O)N[C@@H](CC(C)C)C(=O)N[C@H](C(=O)N[C@@H](Cc2c[nH]c3ccccc23)C(=O)N[C@@H](CCC(=O)O)C(=O)N(C)[C@H](CCCCNC(=O)COCC(=O)NCCCC[C@H](C(N)=O)N(C)C(=O)[C@H](CCC(=O)O)NC(=O)[C@H](Cc2c[nH]c3ccccc23)NC(=O)[C@H]2NC(=O)[C@H](CC(C)C)NC(=O)[C@H]([C@@H](C)O)NC(=O)[C@H](CC(=O)O)NC(=O)[C@H](CO)NC(=O)[C@H](CCCNC(=N)N)N(C)C(=O)[C@@H](NC(C)=O)C(C)(C)SSC2(C)C)C(N)=O)C(C)(C)SSC1(C)C` [compound 214, [Ac-Pen-(N-Me-Arg)-Ser-Asp-Thr-Leu-Pen-Trp-Glu-(N-Me-D-Lys)-NH2]2-DIG] (I: Ac-[Pen][NMeR]SDTL[Pen]WE[dNMeK]-NH2 / II: Ac-[Pen][NMeR]SDTL[Pen]WE[dNMeK]-NH2; disulfide I:1-I:7, II:1-II:7 (inferred); linker I:10-II:10 via Diglycolyl (inferred)) has an IC50 (rh integrin α4β7) of 0.0041 µM, an IC50 (α4β1) of 0.436 µM and an IC50 (α4β7) of 0.0025 µM.
In the case of `CC(=O)N[C@@H]1C(=O)N(C)[C@@H](CCCNC(=N)N)C(=O)N[C@@H](CO)C(=O)N[C@@H](CC(=O)O)C(=O)N[C@@H]([C@@H](C)O)C(=O)N[C@@H](CC(C)C)C(=O)N[C@H](C(=O)N[C@@H](Cc2c[nH]c3ccccc23)C(=O)N[C@H](CCCCNC(=O)COCC(=O)NCCCC[C@@H](NC(=O)[C@H](Cc2c[nH]c3ccccc23)NC(=O)[C@H]2NC(=O)[C@H](CC(C)C)NC(=O)[C@H]([C@@H](C)O)NC(=O)[C@H](CC(=O)O)NC(=O)[C@H](CO)NC(=O)[C@H](CCCNC(=N)N)N(C)C(=O)[C@@H](NC(C)=O)C(C)(C)SSC2(C)C)C(N)=O)C(N)=O)C(C)(C)SSC1(C)C` [compound 209, (Ac-Pen-N-Me-R-S-D-T-L-Pen-W-k-NH2)2-DIG] (I: Ac-[Pen][NMeR]SDTL[Pen]W[dK]-NH2 / II: Ac-[Pen][NMeR]SDTL[Pen]W[dK]-NH2; disulfide I:1-I:7, II:1-II:7 (inferred); linker I:9-II:9 via Diglycolyl (inferred)), the IC50 (rh integrin α4β7) is reported as 0.0023 µM, the IC50 (α4β1) is reported as 0.368 µM and the IC50 (α4β7) is reported as 0.024 µM.
